In BindingDB's records for patent USRE49517 (Janssen Pharmaceuticals, 2023):

Molecular target: Potassium voltage-gated channel subfamily H member 2 (Homo sapiens, UniProt Q12809)
Assay: Inhibition of Specific Binding to the hERG Receptor (HERGBD)
Protocol: Binding was terminated by filtration of the incubated membrane preparations using Filtermat B (Pharmacia, Uppsala Sweden) and a Micro Cell Harvester (Skatron, Lier, Norway). The Filtermat B had been presoaked with 1% polyethylen imine and carefully washed with 0.05 M Tris/HCl-buffer pH=7.7 after the filtration to separate free and bound radioactivity. […] The optimal amount of membrane preparation in the assay was determined and optimized for each membrane preparation separately in front of using the membranes in compound testing. […] For pipetting of the incubation mixture we routinely use the robot Biomek2000 (Fa. Beckman).

Sequence of Potassium voltage-gated channel subfamily H member 2 (Q12809 whole entry): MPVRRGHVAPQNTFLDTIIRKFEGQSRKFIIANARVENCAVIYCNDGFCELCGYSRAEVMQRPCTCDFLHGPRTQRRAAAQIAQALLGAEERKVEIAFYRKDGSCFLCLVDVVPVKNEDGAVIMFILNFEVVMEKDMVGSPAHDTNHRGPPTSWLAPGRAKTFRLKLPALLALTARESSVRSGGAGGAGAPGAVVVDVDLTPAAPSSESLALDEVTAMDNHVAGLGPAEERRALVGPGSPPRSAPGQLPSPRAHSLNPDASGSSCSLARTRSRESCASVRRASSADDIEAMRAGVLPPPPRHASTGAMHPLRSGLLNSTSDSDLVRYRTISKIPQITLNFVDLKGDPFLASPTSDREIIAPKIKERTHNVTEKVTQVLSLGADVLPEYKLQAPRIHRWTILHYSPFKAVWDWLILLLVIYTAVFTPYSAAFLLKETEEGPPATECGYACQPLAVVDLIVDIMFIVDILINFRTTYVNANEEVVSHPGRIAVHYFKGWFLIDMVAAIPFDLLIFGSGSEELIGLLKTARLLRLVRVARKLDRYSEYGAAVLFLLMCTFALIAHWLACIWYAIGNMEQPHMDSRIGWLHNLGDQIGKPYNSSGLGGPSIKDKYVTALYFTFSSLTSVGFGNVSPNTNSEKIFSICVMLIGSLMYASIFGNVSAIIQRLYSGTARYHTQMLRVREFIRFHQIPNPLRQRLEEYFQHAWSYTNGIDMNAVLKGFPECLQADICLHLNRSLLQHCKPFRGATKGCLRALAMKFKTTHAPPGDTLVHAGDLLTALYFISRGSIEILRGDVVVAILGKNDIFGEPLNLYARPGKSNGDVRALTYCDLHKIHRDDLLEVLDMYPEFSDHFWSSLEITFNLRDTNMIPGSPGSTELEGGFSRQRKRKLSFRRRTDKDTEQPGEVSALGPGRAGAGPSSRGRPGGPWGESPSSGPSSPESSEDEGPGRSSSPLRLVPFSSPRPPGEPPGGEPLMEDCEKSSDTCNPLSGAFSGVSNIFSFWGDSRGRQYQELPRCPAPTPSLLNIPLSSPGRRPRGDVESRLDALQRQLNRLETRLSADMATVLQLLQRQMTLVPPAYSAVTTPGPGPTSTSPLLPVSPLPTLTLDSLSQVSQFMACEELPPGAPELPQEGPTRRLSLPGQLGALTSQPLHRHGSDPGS

COc1cc(Cl)ccc1-c1cnn(Cc2ccn(C)n2)c1 [USRE49517, Example 67]
IC50: 63.3 µM
